In US10986838B2, “Herbicides” (SYNGENTA PARTICIPATIONS AG, priority 2016, dated 2021):

Tests used:
Assay type in all cases: in vivo
[1] = tested on: Echinochloa crus-galli (ECHCG); experiment: Pre-emergence herbicidal activity (B1); conditions: 1000 g/ha, evaluated after 13 days, 5=total damage to plant, 0=no damage to plant
Method: (§1) B1 Pre-Emergence Herbicidal Activity Seeds of a variety of test species were sown in standard soil in pots: Triticum aestivium (TRZAW), Avena fatua (AVEFA), Alopecurus myosuroides (ALOMY), Echinochloa crus-galli (ECHCG), Lolium perenne (LOLPE), Zea Mays (ZEAMX), Abutilon theophrasti (ABUTH), Amaranthus retroflexus (AMARE) and Setaria faberi (SETFA). After cultivation for one day (pre-emergence) under controlled conditions in a glasshouse (at 24/16° C., day/night; 14 hours light; 65% humidity), the plants were sprayed with an aqueous spray solution derived from the formulation of the technical active ingredient in acetone/water (50:50) solution containing 0.5% Tween 20 (polyoxyethelyene sorbitan monolaurate, CAS RN 9005-64-5). The test plants were then grown in a glasshouse under controlled conditions (at 24/16° C., day/night; 14 hours light; 65% humidity) and watered twice daily. After 13 days, the test was evaluated (5=total damage to plant; 0=no damage to plant). Tables B1a and B1b Control of Weed Species by Compound of Formula (I) after Pre-Emergence Application

[2] = tested on: Lolium perenne (LOLPE); experiment: Pre-emergence herbicidal activity (B1); conditions: 1000 g/ha, evaluated after 13 days, 5=total damage to plant, 0=no damage to plant
Method: as §1

[3] = tested on: Alopecurus myosuroides (ALOMY); experiment: Pre-emergence herbicidal activity (B1); conditions: Test 1a, 1000 g/ha, evaluated after 13 days, 5=total damage to plant, 0=no damage to plant
Method: as §1

[4] = tested on: Triticum aestivium (TRZAW); experiment: Pre-emergence herbicidal activity (B1); conditions: Test 1a, 1000 g/ha, evaluated after 13 days, 5=total damage to plant, 0=no damage to plant
Method: as §1

[5] = tested on: Avena fatua (AVEFA); experiment: Pre-emergence herbicidal activity (B1); conditions: Test 1a, 1000 g/ha, evaluated after 13 days, 5=total damage to plant, 0=no damage to plant
Method: as §1

[6] = tested on: Setaria faberi (SETFA); experiment: Pre-emergence herbicidal activity (B1); conditions: 1000 g/ha, evaluated after 13 days, 5=total damage to plant, 0=no damage to plant
Method: as §1

[7] = tested on: Echinochloa crus-galli (ECHCG); experiment: Post-emergence herbicidal activity (B2); conditions: 1000 g/ha, evaluated after 13 days, 5=total damage to plant, 0=no damage to plant
Method: (§2) B2 Post-Emergence Herbicidal Activity Seeds of a variety of test species were sown in standard soil in pots: Triticum aestivium (TRZAW), Avena fatua (AVEFA), Alopecurus myosuroides (ALOMY), Echinochloa crus-galli (ECHCG), Lolium perenne (LOLPE), Zea Mays (ZEAMX), Abutilon theophrasti (ABUTH), Amaranthus retroflexus (AMARE) and Setaria faberi (SETFA). After 8 days cultivation (post-emergence) under controlled conditions in a glasshouse (at 24/16° C., day/night; 14 hours light; 65% humidity), the plants were sprayed with an aqueous spray solution derived from the formulation of the technical active ingredient in acetone/water (50:50) solution containing 0.5% Tween 20 (polyoxyethelyene sorbitan monolaurate, CAS RN 9005-64-5). The test plants were then grown in a glasshouse under controlled conditions (at 24/16° C., day/night; 14 hours light; 65% humidity) and watered twice daily. After 13 days, the test was evaluated (5=total damage to plant; 0=no damage to plant). Tables B2a and B2b Control of Weed Species by Compound of Formula (I) after Post-Emergence Application

[8] = tested on: Lolium perenne (LOLPE); experiment: Post-emergence herbicidal activity (B2); conditions: 1000 g/ha, evaluated after 13 days, 5=total damage to plant, 0=no damage to plant
Method: as §2

[9] = tested on: Alopecurus myosuroides (ALOMY); experiment: Post-emergence herbicidal activity (B2); conditions: Test B2a, 1000 g/ha, evaluated after 13 days, 5=total damage to plant, 0=no damage to plant
Method: as §2

[10] = tested on: Triticum aestivium (TRZAW); experiment: Post-emergence herbicidal activity (B2); conditions: Test B2a, 1000 g/ha, evaluated after 13 days, 5=total damage to plant, 0=no damage to plant
Method: as §2

[11] = tested on: Avena fatua (AVEFA); experiment: Post-emergence herbicidal activity (B2); conditions: Test B2a, 1000 g/ha, evaluated after 13 days, 5=total damage to plant, 0=no damage to plant
Method: as §2

[12] = tested on: Setaria faberi (SETFA); experiment: Post-emergence herbicidal activity (B2); conditions: 1000 g/ha, evaluated after 13 days, 5=total damage to plant, 0=no damage to plant
Method: as §2

[13] = tested on: Abutilon theophrasti (ABUTH); experiment: Pre-emergence herbicidal activity (B1); conditions: Test 1b, 1000 g/ha, evaluated after 13 days, 5=total damage to plant, 0=no damage to plant
Method: as §1

[14] = tested on: Zea Mays (ZEAMX); experiment: Pre-emergence herbicidal activity (B1); conditions: Test 1b, 1000 g/ha, evaluated after 13 days, 5=total damage to plant, 0=no damage to plant
Method: as §1

[15] = tested on: Amaranthus retroflexus (AMARE); experiment: Pre-emergence herbicidal activity (B1); conditions: Test 1b, 1000 g/ha, evaluated after 13 days, 5=total damage to plant, 0=no damage to plant
Method: as §1

[16] = tested on: Abutilon theophrasti (ABUTH); experiment: Post-emergence herbicidal activity (B2); conditions: Test B2b, 1000 g/ha, evaluated after 13 days, 5=total damage to plant, 0=no damage to plant
Method: as §2

[17] = tested on: Zea Mays (ZEAMX); experiment: Post-emergence herbicidal activity (B2); conditions: Test B2b, 1000 g/ha, evaluated after 13 days, 5=total damage to plant, 0=no damage to plant
Method: as §2

[18] = tested on: Amaranthus retroflexus (AMARE); experiment: Post-emergence herbicidal activity (B2); conditions: Test B2b, 1000 g/ha, evaluated after 13 days, 5=total damage to plant, 0=no damage to plant
Method: as §2

| Compound | ABUTH damage score [13] | ECHCG damage score ([1]; Test 1b) | ZEAMX damage score [14] | LOLPE damage score ([2]; Test 1b) | AMARE damage score [15] | SETFA damage score ([6]; Test 1b) | ABUTH damage score [16] | ECHCG damage score ([7]; Test B2b) | ZEAMX damage score [17] | LOLPE damage score ([8]; Test B2b) | AMARE damage score [18] | SETFA damage score ([12]; Test B2b) | also measured |
| --- | --- | --- | --- | --- | --- | --- | --- | --- | --- | --- | --- | --- | --- |
| Fc1cncc(-c2ccc(NCc3cscn3)c(C(F)(F)F)n2)c1 [Compound A57] |  |  |  |  |  |  |  |  |  |  |  |  | ECHCG damage score ([1]; Test 1a): 5; LOLPE damage score ([2]; Test 1a): 1; ALOMY damage score [3]: 1; TRAZW damage score [4]: 0; AVEFA damage score [5]: 3; SETFA damage score ([6]; Test 1a): 5; ECHCG damage score ([7]; Test B2a): 5; LOLPE damage score ([8]; Test B2a): 4; ALOMY damage score [9]: 1; TRAZW damage score [10]: 2; AVEFA damage score [11]: 4; SETFA damage score ([12]; Test B2a): 5 |
| Nc1ccc(-c2cncc(F)c2)nc1C(F)(F)F [Compound A33, 6-(5-fluoro-3-pyridyl)-2-(trifluoromethyl)pyridin-3-amine] | 0 | 2 | 4 | 2 | 1 | 4 | 1 | 3 | 5 | 3 | 2 | 5 |  |
| Fc1cncc(-c2ccc(NC3CCCCC3)c(C(F)(F)F)n2)c1 [Compound A45] |  |  |  |  |  |  |  |  |  |  |  |  | ECHCG damage score ([1]; Test 1a): 3; LOLPE damage score ([2]; Test 1a): 0; ALOMY damage score [3]: 0; AVEFA damage score [5]: 1; SETFA damage score ([6]; Test 1a): 4; ECHCG damage score ([7]; Test B2a): 2; LOLPE damage score ([8]; Test B2a): 1; ALOMY damage score [9]: 0; TRAZW damage score [10]: 0; AVEFA damage score [11]: 2; SETFA damage score ([12]; Test B2a): 4 |
| Nc1ccc(-c2cncnc2)nc1C(F)(F)F [Compound A35, 6-pyrimidin-5-yl-2-(trifluoromethyl)pyridin-3-amine] | 0 | 3 | 5 | 2 | 1 | 4 | 1 | 4 | 5 | 4 | 2 | 5 |  |
| CC(Nc1ccc(-c2cncc(F)c2)nc1C(F)(F)F)c1cccc(C(F)(F)F)c1 (centres unmarked) [Compound A16] | 0 | 1 | 1 | 0 | 0 | 4 | 0 | 3 | 3 | 1 | 0 | 5 |  |
| CNc1ccc(-c2cncc(OC)c2)nc1C(F)(F)F [Compound A10] | 1 | 0 | 1 | 0 | 1 | 2 | 0 | 1 | 2 | 1 | 1 | 3 |  |
| Fc1cncc(-c2ccc(Nc3ccccc3)c(C(F)(F)F)n2)c1 [Compound A32, 6-(5-fluoro-3-pyridyl)-N-phenyl-2-(trifluoromethyl)pyridin-3-amine] | 1 | 4 | 1 | 1 | 1 | 5 | 0 | 4 | 4 | 3 | 0 | 5 |  |
| Cc1nc(-c2cncnc2)ccc1N [Compound A14] | 0 | 1 | 1 | 1 | 0 | 2 | 0 | 2 | 2 | 1 | 2 | 3 |  |
